Assay results reported in patent publication US12252524B2, “GIP/GLP1 co-agonist compounds” (Eli Lilly and Company, priority 2018, dated 2025).
Numbered stars: 1 amine (or outer) side, 2 acyl side, 3 side chain; on linkers, the order of the positions; unused ones are H or OH. Square brackets hold non-standard residues; d marks the D form. Side chains are listed from the residue outwards. Peptide text beside a SMILES is read from it. * marks the point of attachment. C20 diacid = O=C(O)CCCCCCCCCCCCCCCCCCC(=O)*; C18 diacid = O=C(O)CCCCCCCCCCCCCCCCC(=O)*; αMePhe(2-F) = C[C@](N)(Cc1ccccc1F)C(=O)O; γGlu = O=C(O)[C@H](CCC(=O)[*:2])N[*:1]; αMeF = C[C@](N)(Cc1ccccc1)C(=O)O; 3Pal = N[C@@H](Cc1cccnc1)C(=O)O; 4Pal = N[C@@H](Cc1ccncc1)C(=O)O; αMeL = CC(C)C[C@](C)(N)C(=O)O; AEEA = NCCOCCOCC(=O)O; Aib = CC(C)(N)C(=O)O

Experiments:
human Gcg receptor = biological target: T1, human Gcg receptor (Homo sapiens, UniProt P47871); test: [125I]-Glucagon binding (SPA), human Gcg receptor; conditions: read-out: hGLcgR Ki, nM (SEM, n)
T1 construct: expressed in transfected cells; crude membranes
Protocol: (§1) Two methods are used for the preparation of crude cell membranes.
(§2) Method 1: Frozen cell pellets are lysed on ice in hypotonic buffer containing 50 mM Tris HCl, pH 7.5, and Roche Complete™ Protease Inhibitors with EDTA. The cell suspension is disrupted using a glass Potter-Elvehjem homogenizer fitted with a Teflon® pestle for 25 strokes. The homogenate is centrifuged at 4° C. at 1100×g for 10 minutes. The supernatant is collected and stored on ice while the pellets are resuspended in homogenization buffer and rehomogenized as described above. The homogenate is centrifuged at 1100×g for 10 minutes. The second supernatant is combined with the first supernatant and centrifuged at 35000×g for 1 hour at 4° C. The resulting membrane pellet is resuspended in homogenization buffer containing protease inhibitors at approximately 1 to 3 mg/mL, quick frozen in liquid nitrogen and stored as aliquots in a−80° C. freezer until use.
(§3) Method 2: Frozen cell pellets are lysed on ice in hypotonic buffer containing 50 mM Tris HCl, pH 7.5, 1 mM MgCl2, Roche Complete™ EDTA-free Protease Inhibitors and 25 units/ml DNAse I (Invitrogen). The cell suspension is disrupted using a glass Potter-Elvehjem homogenizer fitted with a Teflon® pestle for 20 to 25 strokes. The homogenate is centrifuged at 4° C. at 1800×g for 15 minutes. The supernatant is collected and stored on ice while the pellets are resuspended in homogenization buffer (without DNAse I) and rehomogenized as described above. The homogenate is centrifuged at 1800×g for 15 minutes. The second supernatant is combined with the first supernatant and centrifuged an additional time at 1800×g for 15 minutes. The overall supernatant is then centrifuged at 25000×g for 30 minutes at 4° C. The resulting membrane pellet is resuspended in homogenization buffer (without DNAse I) containing protease inhibitors at approximately 1 to 3 mg/mL and stored as aliquots in a−80° C. freezer until use.
The human Gcg receptor binding assays are performed using a Scintillation Proximity Assay (SPA) format with wheat germ agglutinin (WGA) beads (Perkin Elmer). The binding buffer contains 25 mM 4-(2-hydroxyethyl)-1-piperazineethanesulfonic acid (HEPES), pH 7.4, 2.5 mM CaCl2, 1 mM MgCl2, 0.1% (w/v) bacitracin (Research Products), 0.003% (w/v) Polyoxyethylenesorbitan monolaurate (TWEEN©-20), and Roche Complete™ Protease Inhibitors without EDTA. […] Plates are sealed and mixed on a plate shaker (setting 6) for 1 minute and read with a PerkinElmer Trilux MicroBeta© scintillation counter after 12 hours of incubation/settling time at room temperature.
(§4) Data are analyzed using four-parameter (curve maximum, curve minimum, IC50, Hill slope) nonlinear regression routines (Genedata Screener, version 12.0.4, Genedata AG, Basal, Switzerland). […] Values for Ki are reported as the geometric mean, with error expressed as the standard error of the mean (SEM) and n is equal to the number of independent replicates (determined in assays performed on different days). […] The Ki Ratio is a rapid indication of the apparent affinity of a peptide compared to the native control peptide. […] SEM is only calculated when n=2 or greater non-qualified results exist. Means are expressed as GeoMetric means with the standard error of the mean (SEM) and the number of replicates (n) indicated in parenthesis.

[1] = biological target: human GLP-1 receptor (GLP-1R) (Homo sapiens, UniProt P43220); test: cAMP pharmacological functional assay in presence of casein, hGLP-1R; assay type: cell-based; conditions: HEK293 cells expressing hGLP-1R, 0.1% Casein, geometric mean; read-out: hGLP1R cAMP Rel EC50 nM (SEM, n)
human GIP receptor = biological target: T2, human GIP receptor (Homo sapiens, UniProt P48546); test: [125I]-GIP binding (SPA), human GIP receptor; conditions: read-out: hGIPR Ki, nM (SEM, n)
T2 construct: expressed in transfected cells; crude membranes
T2 sequence (P48546 22-466): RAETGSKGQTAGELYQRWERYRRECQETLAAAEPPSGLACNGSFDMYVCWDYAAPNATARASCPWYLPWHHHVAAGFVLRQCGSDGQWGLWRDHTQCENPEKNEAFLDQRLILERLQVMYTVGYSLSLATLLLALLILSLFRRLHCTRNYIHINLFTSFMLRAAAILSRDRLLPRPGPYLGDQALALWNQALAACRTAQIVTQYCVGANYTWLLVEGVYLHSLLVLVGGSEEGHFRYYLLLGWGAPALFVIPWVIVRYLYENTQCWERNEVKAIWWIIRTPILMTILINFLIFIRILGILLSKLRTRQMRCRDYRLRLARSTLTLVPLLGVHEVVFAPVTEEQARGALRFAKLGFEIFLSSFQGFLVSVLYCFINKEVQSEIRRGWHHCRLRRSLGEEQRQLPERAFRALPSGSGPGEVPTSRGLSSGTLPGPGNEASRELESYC
Protocol: as §1, §2, §3
The binding buffer contains 25 mM HEPES, pH 7.4, 2.5 mM CaCl2, 1 mM MgCl2, 0.1% (w/v) bacitracin, 0.003% (w/v) TWEEN©-20, and Roche Complete™ Protease Inhibitors without EDTA. Peptides and GIP are thawed and 3 fold serially diluted in 100% DMSO (10 point concentration response curves). […] Plates are sealed and mixed on a plate shaker (setting 6) for 1 minute and read with a PerkinElmer Trilux MicroBeta© scintillation counter after 2.5 to 12 hours of incubation/settling time at room temperature.
as §4

[2] = biological target: T3, gastric inhibitory peptide receptor (GIPR) (Homo sapiens, UniProt P48546); test: cAMP pharmacological functional assay in presence of casein, hGIPR; assay type: cell-based; conditions: HEK293 cells expressing hGIPR, 0.1% Casein, geometric mean; read-out: hGIPR cAMP Rel EC50 nM (SEM, n)
T3 sequence (P48546 22-466): T2 sequence (P48546 22-466)

human GLP-1R = human GLP-1R (Homo sapiens, UniProt P43220); test: [125I]-GLP-1 binding (SPA), human GLP-1 receptor; set-up: expressed in transfected cells; crude membranes; conditions: read-out: hGLP1R Ki, (nM) (SEM, n)
Protocol: as §1, §2, §3
The binding buffer contains 25 mM HEPES, pH 7.4, 2.5 mM CaCl2, 1 mM MgCl2, 0.1% (w/v) bacitracin, 0.003% (w/v) TWEEN©-20, and Roche Complete™ Protease Inhibitors without EDTA.
as §4

T1 sequence (P47871 26-477): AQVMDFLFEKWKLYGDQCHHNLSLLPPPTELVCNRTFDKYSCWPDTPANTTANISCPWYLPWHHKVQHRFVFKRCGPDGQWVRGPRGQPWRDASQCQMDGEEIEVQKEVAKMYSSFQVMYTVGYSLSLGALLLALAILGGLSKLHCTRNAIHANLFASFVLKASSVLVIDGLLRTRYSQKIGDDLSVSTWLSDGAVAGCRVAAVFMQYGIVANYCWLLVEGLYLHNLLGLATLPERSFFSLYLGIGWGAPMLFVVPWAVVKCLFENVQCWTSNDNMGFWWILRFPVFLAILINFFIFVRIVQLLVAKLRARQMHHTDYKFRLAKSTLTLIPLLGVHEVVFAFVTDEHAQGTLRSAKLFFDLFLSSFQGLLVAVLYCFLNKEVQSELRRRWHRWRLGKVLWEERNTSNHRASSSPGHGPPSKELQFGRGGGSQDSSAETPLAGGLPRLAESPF
Sequence of human GLP-1 receptor (GLP-1R) (P43220 24-463): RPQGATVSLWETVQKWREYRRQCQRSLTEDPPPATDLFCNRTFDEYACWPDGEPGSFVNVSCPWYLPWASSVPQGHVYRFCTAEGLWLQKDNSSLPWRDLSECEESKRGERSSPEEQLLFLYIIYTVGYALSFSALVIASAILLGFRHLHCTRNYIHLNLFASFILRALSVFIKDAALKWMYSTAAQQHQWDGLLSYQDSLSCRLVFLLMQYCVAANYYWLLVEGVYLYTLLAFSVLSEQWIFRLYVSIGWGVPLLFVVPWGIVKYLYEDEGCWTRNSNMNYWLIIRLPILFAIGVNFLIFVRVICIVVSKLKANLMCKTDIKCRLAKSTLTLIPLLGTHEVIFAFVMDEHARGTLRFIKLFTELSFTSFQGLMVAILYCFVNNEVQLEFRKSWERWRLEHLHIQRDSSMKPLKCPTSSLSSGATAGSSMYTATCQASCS
Sequence of human GLP-1R (P43220 24-463): as above

Row | SMILES | Ki (human Gcg receptor) | EC50 [1] | Ki (human GIP receptor) | EC50 [2] | Ki (human GLP-1R)
1 | CC[C@H](C)[C@H](NC(=O)[C@H](CC(C)C)NC(=O)[C@H](Cc1ccc(O)cc1)NC(=O)[C@H](CCC(=O)O)NC(=O)[C@@H](NC(=O)[C@H](Cc1ccccc1)NC(=O)[C@@H](NC(=O)C(C)(C)NC(=O)[C@H](CCC(N)=O)NC(=O)[C@H](C)NC(=O)[C@H](CCCCNC(=O)COCCOCCNC(=O)COCCOCCNC(=O)CC[C@H](NC(=O)CCCCCCCCCCCCCCCCCCC(=O)O)C(=O)O)NC(=O)[C@H](CCCCN)NC(=O)[C@H](CC(=O)O)NC(=O)[C@H](CC(C)C)NC(=O)[C@](C)(CC(C)C)NC(=O)[C@@H](NC(=O)[C@H](CO)NC(=O)[C@H](Cc1ccc(O)cc1)NC(=O)[C@H](CC(=O)O)NC(=O)[C@H](CO)NC(=O)[C@@H](NC(=O)[C@](C)(Cc1ccccc1)NC(=O)[C@@H](NC(=O)CNC(=O)[C@H](CCC(=O)O)NC(=O)C(C)(C)NC(=O)[C@@H](N)Cc1ccc(O)cc1)[C@@H](C)O)[C@@H](C)O)[C@@H](C)CC)[C@@H](C)O)[C@@H](C)CC)C(=O)N[C@@H](CCC(=O)O)C(=O)NCC(=O)NCC(=O)N1CCC[C@H]1C(=O)N[C@@H](CO)C(=O)N[C@@H](CO)C(=O)NCC(=O)N[C@@H](C)C(=O)N1CCC[C@H]1C(=O)N1CCC[C@H]1C(=O)N1CCC[C@H]1C(=O)N[C@@H](CO)C(N)=O [Example 139] (H-Y[Aib]EGT[αMeF]TSDYSI[αMeL]LDKK([AEEA-AEEA-γGlu-C20 diacid])AQ[Aib]TFIEYLIEGGPSSGAPPPS-NH2) | 105 nM | 0.0417 nM | 0.036 nM | 0.037 nM | 
2 | CC[C@H](C)[C@H](NC(=O)[C@H](CC(C)C)NC(=O)[C@H](Cc1ccc(O)cc1)NC(=O)[C@@H](CCC(=O)O)NC(=O)[C@@H](NC(=O)[C@H](Cc1ccccc1)NC(=O)[C@H](CCC(=O)O)NC(=O)C(C)(C)NC(=O)[C@H](CCC(N)=O)NC(=O)[C@H](C)NC(=O)[C@H](CCCCNC(=O)COCCOCCNC(=O)COCCOCCNC(=O)CC[C@H](NC(=O)CCCCCCCCCCCCCCCCCCC(=O)O)C(=O)O)NC(=O)[C@H](CCC(=O)O)NC(=O)[C@H](CC(=O)O)NC(=O)[C@H](CC(C)C)NC(=O)[C@](C)(CC(C)C)NC(=O)[C@@H](NC(=O)[C@H](CO)NC(=O)[C@H](Cc1cccnc1)NC(=O)[C@H](CC(=O)O)NC(=O)[C@H](CO)NC(=O)[C@@H](NC(=O)[C@](C)(Cc1ccccc1F)NC(=O)[C@@H](NC(=O)CNC(=O)[C@H](CCC(=O)O)NC(=O)C(C)(C)NC(=O)[C@@H](N)Cc1ccc(O)cc1)[C@@H](C)O)[C@@H](C)O)[C@@H](C)CC)[C@@H](C)CC)C(=O)N[C@@H](CCC(=O)O)C(=O)NCC(=O)NCC(=O)N1CCC[C@H]1C(=O)N[C@@H](CO)C(=O)N[C@@H](CO)C(=O)NCC(=O)N[C@@H](C)C(=O)N1CCC[C@H]1C(=O)N1CCC[C@H]1C(=O)N1CCC[C@H]1C(=O)N[C@@H](CO)C(N)=O [Example 181] (H-Y[Aib]EGT[αMePhe(2-F)]TSD[3Pal]SI[αMeL]LDEK([AEEA-AEEA-γGlu-C20 diacid])AQ[Aib]EFI[dE]YLIEGGPSSGAPPPS-NH2) | 413 nM |  | 0.145 nM |  | 7.28 nM
3 | CC[C@H](C)[C@H](NC(=O)[C@H](CC(C)C)NC(=O)[C@H](Cc1ccc(O)cc1)NC(=O)[C@@H](CCC(=O)O)NC(=O)[C@@H](NC(=O)[C@H](Cc1ccccc1)NC(=O)[C@H](CCC(=O)O)NC(=O)C(C)(C)NC(=O)[C@H](CCC(N)=O)NC(=O)[C@H](C)NC(=O)[C@H](CCCCNC(=O)COCCOCCNC(=O)COCCOCCNC(=O)CC[C@H](NC(=O)CCCCCCCCCCCCCCCCCCC(=O)O)C(=O)O)NC(=O)[C@H](CCC(=O)O)NC(=O)[C@H](CC(=O)O)NC(=O)[C@H](CC(C)C)NC(=O)[C@](C)(CC(C)C)NC(=O)[C@@H](NC(=O)[C@H](CO)NC(=O)[C@H](Cc1ccncc1)NC(=O)[C@H](CC(=O)O)NC(=O)[C@H](CO)NC(=O)[C@@H](NC(=O)[C@](C)(Cc1ccccc1F)NC(=O)[C@@H](NC(=O)CNC(=O)[C@H](CCC(=O)O)NC(=O)C(C)(C)NC(=O)[C@@H](N)Cc1ccc(O)cc1)[C@@H](C)O)[C@@H](C)O)[C@@H](C)CC)[C@@H](C)CC)C(=O)N[C@@H](CCC(=O)O)C(=O)NCC(=O)NCC(=O)N1CCC[C@H]1C(=O)N[C@@H](CO)C(=O)N[C@@H](CO)C(=O)NCC(=O)N[C@@H](C)C(=O)N1CCC[C@H]1C(=O)N1CCC[C@H]1C(=O)N1CCC[C@H]1C(=O)N[C@@H](CO)C(N)=O [Example 182] (H-Y[Aib]EGT[αMePhe(2-F)]TSD[4Pal]SI[αMeL]LDEK([AEEA-AEEA-γGlu-C20 diacid])AQ[Aib]EFI[dE]YLIEGGPSSGAPPPS-NH2; N-terminus assumed) | 565 nM |  | 0.0669 nM | 0.0442 nM | 4.64 nM
4 | CC[C@H](C)[C@H](NC(=O)[C@H](CC(C)C)NC(=O)[C@H](Cc1ccc(O)cc1)NC(=O)[C@@H](CCC(=O)O)NC(=O)[C@@H](NC(=O)[C@H](Cc1ccccc1)NC(=O)[C@H](CCC(=O)O)NC(=O)C(C)(C)NC(=O)[C@H](CCC(N)=O)NC(=O)[C@H](C)NC(=O)[C@H](CCCCNC(=O)COCCOCCNC(=O)COCCOCCNC(=O)CC[C@H](NC(=O)CCCCCCCCCCCCCCCCC(=O)O)C(=O)O)NC(=O)[C@H](CCC(=O)O)NC(=O)[C@H](CC(=O)O)NC(=O)[C@H](CC(C)C)NC(=O)[C@](C)(CC(C)C)NC(=O)[C@@H](NC(=O)[C@H](CO)NC(=O)[C@H](Cc1ccncc1)NC(=O)[C@H](CC(=O)O)NC(=O)[C@H](CO)NC(=O)[C@@H](NC(=O)[C@](C)(Cc1ccccc1F)NC(=O)[C@@H](NC(=O)CNC(=O)[C@H](CCC(=O)O)NC(=O)C(C)(C)NC(=O)[C@@H](N)Cc1ccc(O)cc1)[C@@H](C)O)[C@@H](C)O)[C@@H](C)CC)[C@@H](C)CC)C(=O)N[C@@H](CCC(=O)O)C(=O)NCC(=O)NCC(=O)N1CCC[C@H]1C(=O)N[C@@H](CO)C(=O)N[C@@H](CO)C(=O)NCC(=O)N[C@@H](C)C(=O)N1CCC[C@H]1C(=O)N1CCC[C@H]1C(=O)N1CCC[C@H]1C(=O)N[C@@H](CO)C(N)=O [Example 204] (H-Y[Aib]EGT[αMePhe(2-F)]TSD[4Pal]SI[αMeL]LDEK([AEEA-AEEA-γGlu-C18 diacid])AQ[Aib]EFI[dE]YLIEGGPSSGAPPPS-NH2) | > 1150 nM | 0.0654 nM | 0.0704 nM | 0.0424 nM | 
